Earlier results on five molecules are cited in patent publication US20120020948A1, “DAG-TYPE AND INDIRECT PROTEIN KINASE C ACTIVATORS AND ANTICOAGULANT FOR THE TREATMENT OF STROKE” (priority 2010, published 2012).

For one data set, the system named is PKC. The note with it: for affinity for PKC: A-ring bryologs.

Regarding `CCCCCCCC(=O)O[C@H]1/C(=C/C(=O)OC)C[C@H]2C[C@H](CO)OC(=O)C[C@H](O)C[C@@H]3CCC[C@H](C[C@@H]4CCO[C@H](/C=C/C(C)(C)[C@]1(O)O2)O4)O3` [Analog 1], in the data set with PKC, the “PKC Affin” value is 0.25 nM and the “affinity for PKC (in words)” value is “highest affinity for PKC”. Regarding `CC1=CC[C@H](C)C(C)(C)[C@@H]1/C=C/C(C)=C/CC[C@@]1(CO)[C@H](CCCO)/C(=C(/C)C=O)CC[C@]1(C)O` [Iripallidal], the “GI50 (concentration required to inhibit growth by 50%)” value in the data set with NCI 60 cell line screen is listed as “micromolar to nanomolar range”. Consider `CCCCCCCC(=O)OC1C(=CC(=O)OC)CC2CC(CO)OC(=O)CC(O)CCOC(C(C)(C)C)CC3CCOC(C=CC(C)(C)C1(O)O2)O3` (stereo not drawn) [bryolog 3], for which, in the data set with PKC, the “affinity for PKC” value was 6.5 nM. In the case of `CCCCCCCC(=O)OC1C(=CC(=O)OC)CC2CC(CO)OC(=O)CC(O)CCOC(c3ccccc3)CC3CCOC(C=CC(C)(C)C1(O)O2)O3` (stereo not drawn) [bryolog 4], the “affinity for PKC” value in the data set with PKC is given as 2.3 nM. In the case of `CCCCCCCC(=O)OC1C(=CC(=O)OC)CC2CC(CO)OC(=O)CC(O)CCOC(CCCc3ccc(Br)cc3)CC3CCOC(C=CC(C)(C)C1(O)O2)O3` (stereo not drawn) [bryolog 5], the “affinity for PKC” value in the data set on PKC is given as 1.9 nM.
